± gives the uncertainty stated by the source.
Test: xn = mol fraction of the nth substance listed

`Cc1cccc(C)c1` + CC(C)CO showed a viscosity (308.15 K, 101 kPa, x2 = 0.066) of 0.543 ± 0.011 mPa·s, a viscosity (308.15 K, 101 kPa, x2 = 0.1299) of 0.555 ± 0.012 mPa·s and a viscosity (308.15 K, 101 kPa, x2 = 0.2218) of 0.581 ± 0.012 mPa·s. The viscosity (308.15 K, 101 kPa, x2 = 0.3376) was 0.635 ± 0.013 mPa·s, the viscosity (308.15 K, 101 kPa, x2 = 0.4463) was 0.714 ± 0.015 mPa·s and the viscosity (308.15 K, 101 kPa, x2 = 0.5733) was 0.862 ± 0.018 mPa·s. The viscosity (308.15 K, 101 kPa, x2 = 0.6333) was 0.954 ± 0.02 mPa·s, the viscosity (308.15 K, 101 kPa, x2 = 0.7251) was 1.146 ± 0.024 mPa·s and the viscosity (308.15 K, 101 kPa, x2 = 0.8223) was 1.479 ± 0.031 mPa·s. The viscosity (308.15 K, 101 kPa, x2 = 0.9039) was 1.794 ± 0.037 mPa·s and the viscosity (308.15 K, 101 kPa, x2 = 0.9623) was 2.218 ± 0.046 mPa·s.
Work on `Nc1ccccc1Cl` + CC(C)CO yielded a viscosity (303.15 K, 101 kPa, x1 = 0.0805) of 2.81 ± 0.61 mPa·s, a viscosity (303.15 K, 101 kPa, x1 = 0.1856) of 3 ± 0.65 mPa·s and a viscosity (303.15 K, 101 kPa, x1 = 0.2856) of 3.16 ± 0.69 mPa·s. The viscosity (303.15 K, 101 kPa, x1 = 0.3751) was 3.29 ± 0.72 mPa·s, the viscosity (303.15 K, 101 kPa, x1 = 0.4789) was 3.42 ± 0.74 mPa·s and the viscosity (303.15 K, 101 kPa, x1 = 0.5761) was 3.53 ± 0.77 mPa·s. The viscosity (303.15 K, 101 kPa, x1 = 0.6805) was 3.63 ± 0.79 mPa·s, the viscosity (303.15 K, 101 kPa, x1 = 0.7859) was 3.71 ± 0.81 mPa·s and the viscosity (303.15 K, 101 kPa, x1 = 0.8952) was 3.78 ± 0.82 mPa·s. The viscosity (308.15 K, 101 kPa, x1 = 0.0805) was 2.46 ± 0.53 mPa·s, the viscosity (308.15 K, 101 kPa, x1 = 0.1856) was 2.66 ± 0.58 mPa·s and the viscosity (308.15 K, 101 kPa, x1 = 0.2856) was 2.81 ± 0.61 mPa·s. It also gave a viscosity (308.15 K, 101 kPa, x1 = 0.3751) of 2.92 ± 0.63 mPa·s, a viscosity (308.15 K, 101 kPa, x1 = 0.4789) of 3.05 ± 0.66 mPa·s and a viscosity (308.15 K, 101 kPa, x1 = 0.5761) of 3.15 ± 0.68 mPa·s. For the same compound, the viscosity (308.15 K, 101 kPa, x1 = 0.6805) was 3.25 ± 0.71 mPa·s, the viscosity (308.15 K, 101 kPa, x1 = 0.7859) was 3.33 ± 0.72 mPa·s and the viscosity (308.15 K, 101 kPa, x1 = 0.8952) was 3.39 ± 0.74 mPa·s. It also gave a viscosity (313.15 K, 101 kPa, x1 = 0.0805) of 2.16 ± 0.47 mPa·s, a viscosity (313.15 K, 101 kPa, x1 = 0.1856) of 2.35 ± 0.51 mPa·s and a viscosity (313.15 K, 101 kPa, x1 = 0.2856) of 2.5 ± 0.54 mPa·s. For the same compound, the viscosity (313.15 K, 101 kPa, x1 = 0.3751) was 2.61 ± 0.57 mPa·s, the viscosity (313.15 K, 101 kPa, x1 = 0.4789) was 2.73 ± 0.59 mPa·s and the viscosity (313.15 K, 101 kPa, x1 = 0.5761) was 2.83 ± 0.62 mPa·s. It also gave a viscosity (313.15 K, 101 kPa, x1 = 0.6805) of 2.93 ± 0.64 mPa·s, a viscosity (313.15 K, 101 kPa, x1 = 0.7859) of 2.99 ± 0.65 mPa·s and a viscosity (313.15 K, 101 kPa, x1 = 0.8952) of 3.01 ± 0.65 mPa·s. For the same compound, the viscosity (318.15 K, 101 kPa, x1 = 0.0805) was 1.9 ± 0.41 mPa·s, the viscosity (318.15 K, 101 kPa, x1 = 0.1856) was 2.08 ± 0.45 mPa·s and the viscosity (318.15 K, 101 kPa, x1 = 0.2856) was 2.23 ± 0.48 mPa·s. The viscosity (318.15 K, 101 kPa, x1 = 0.3751) was 2.33 ± 0.51 mPa·s, the viscosity (318.15 K, 101 kPa, x1 = 0.4789) was 2.45 ± 0.53 mPa·s and the viscosity (318.15 K, 101 kPa, x1 = 0.5761) was 2.55 ± 0.55 mPa·s. The viscosity (318.15 K, 101 kPa, x1 = 0.6805) was 2.65 ± 0.58 mPa·s, the viscosity (318.15 K, 101 kPa, x1 = 0.7859) was 2.73 ± 0.59 mPa·s and the viscosity (318.15 K, 101 kPa, x1 = 0.8952) was 2.78 ± 0.6 mPa·s.
In the case of `O=S1(=O)CCCC1` + CC(C)CO, the viscosity (303.15 K, 101 kPa, x1 = 0.0598) is reported as 2.606 ± 0.03 mPa·s, the viscosity (303.15 K, 101 kPa, x1 = 0.1852) is reported as 2.541 ± 0.028 mPa·s and the viscosity (303.15 K, 101 kPa, x1 = 0.259) is reported as 2.648 ± 0.029 mPa·s. It also gave a viscosity (303.15 K, 101 kPa, x1 = 0.3891) of 2.978 ± 0.034 mPa·s, a viscosity (303.15 K, 101 kPa, x1 = 0.5066) of 3.416 ± 0.04 mPa·s and a viscosity (303.15 K, 101 kPa, x1 = 0.5903) of 3.853 ± 0.046 mPa·s. For the same compound, the viscosity (303.15 K, 101 kPa, x1 = 0.7089) was 4.763 ± 0.059 mPa·s, the viscosity (303.15 K, 101 kPa, x1 = 0.7888) was 5.677 ± 0.066 mPa·s and the viscosity (303.15 K, 101 kPa, x1 = 0.9464) was 6.708 ± 0.081 mPa·s. The viscosity (308.15 K, 101 kPa, x1 = 0.0598) was 2.261 ± 0.024 mPa·s, the viscosity (308.15 K, 101 kPa, x1 = 0.1852) was 2.222 ± 0.024 mPa·s and the viscosity (308.15 K, 101 kPa, x1 = 0.259) was 2.319 ± 0.025 mPa·s. The viscosity (308.15 K, 101 kPa, x1 = 0.3891) was 2.611 ± 0.03 mPa·s, the viscosity (308.15 K, 101 kPa, x1 = 0.5066) was 3.017 ± 0.035 mPa·s and the viscosity (308.15 K, 101 kPa, x1 = 0.5903) was 3.414 ± 0.04 mPa·s. For the same compound, the viscosity (308.15 K, 101 kPa, x1 = 0.7089) was 4.229 ± 0.051 mPa·s, the viscosity (308.15 K, 101 kPa, x1 = 0.7888) was 5.037 ± 0.062 mPa·s and the viscosity (308.15 K, 101 kPa, x1 = 0.9464) was 7.667 ± 0.089 mPa·s. For the same compound, the viscosity (313.15 K, 101 kPa, x1 = 0.0598) was 1.971 ± 0.02 mPa·s, the viscosity (313.15 K, 101 kPa, x1 = 0.1852) was 1.954 ± 0.021 mPa·s and the viscosity (313.15 K, 101 kPa, x1 = 0.259) was 2.045 ± 0.022 mPa·s. It also gave a viscosity (313.15 K, 101 kPa, x1 = 0.3891) of 2.309 ± 0.025 mPa·s, a viscosity (313.15 K, 101 kPa, x1 = 0.5066) of 2.681 ± 0.031 mPa·s and a viscosity (313.15 K, 101 kPa, x1 = 0.5903) of 3.043 ± 0.035 mPa·s. It also gave a viscosity (313.15 K, 101 kPa, x1 = 0.7089) of 3.778 ± 0.045 mPa·s, a viscosity (313.15 K, 101 kPa, x1 = 0.7888) of 4.493 ± 0.053 mPa·s and a viscosity (313.15 K, 101 kPa, x1 = 0.9464) of 6.786 ± 0.084 mPa·s.
With `CCCCn1cc[n+](C)c1.F[B-](F)(F)F` + CC(C)O the viscosity (293.15 K, 101.33 kPa, x1 = 0.8458) was 68.89 ± 10 mPa·s, the viscosity (293.15 K, 101.33 kPa, x1 = 0.9327) was 95.48 ± 14 mPa·s and the viscosity (298.15 K, 101.33 kPa, x1 = 0.1585) was 7.02 ± 1.1 mPa·s. It also gave a viscosity (298.15 K, 101.33 kPa, x1 = 0.9327) of 82.35 ± 12 mPa·s, a viscosity (303.15 K, 101.33 kPa, x1 = 0.2402) of 9.55 ± 1.4 mPa·s and a viscosity (303.15 K, 101.33 kPa, x1 = 0.9327) of 70.16 ± 11 mPa·s. It also gave a viscosity (308.15 K, 101.33 kPa, x1 = 0.2402) of 8.45 ± 1.3 mPa·s, a viscosity (313.15 K, 101.33 kPa, x1 = 0.2402) of 6.79 ± 1 mPa·s and a viscosity (313.15 K, 101.33 kPa, x1 = 0.3505) of 9.91 ± 1.5 mPa·s. It also gave a viscosity (318.15 K, 101.33 kPa, x1 = 0.3505) of 7.14 ± 1.1 mPa·s, a viscosity (318.15 K, 101.33 kPa, x1 = 0.4422) of 9.33 ± 1.4 mPa·s and a viscosity (323.15 K, 101.33 kPa, x1 = 0.5619) of 8.26 ± 1.2 mPa·s.
For `NCCCO` + CC(C)O, the viscosity (293.15 K, 101 kPa, x1 = 0.7002) was 19.25 ± 0.83 mPa·s.
In the case of `O=S1(=O)CCCC1` + CC(C)O, the viscosity (303.15 K, 101 kPa, x1 = 0.0756) is reported as 1.634 ± 0.019 mPa·s, the viscosity (303.15 K, 101 kPa, x1 = 0.1606) is reported as 1.705 ± 0.019 mPa·s and the viscosity (303.15 K, 101 kPa, x1 = 0.2446) is reported as 1.823 ± 0.02 mPa·s. For the same compound, the viscosity (303.15 K, 101 kPa, x1 = 0.3418) was 2.067 ± 0.023 mPa·s, the viscosity (303.15 K, 101 kPa, x1 = 0.4362) was 2.386 ± 0.027 mPa·s and the viscosity (303.15 K, 101 kPa, x1 = 0.5514) was 2.94 ± 0.035 mPa·s. For the same compound, the viscosity (303.15 K, 101 kPa, x1 = 0.6552) was 3.662 ± 0.045 mPa·s, the viscosity (303.15 K, 101 kPa, x1 = 0.754) was 4.701 ± 0.06 mPa·s and the viscosity (303.15 K, 101 kPa, x1 = 0.8754) was 6.713 ± 0.091 mPa·s. For the same compound, the viscosity (308.15 K, 101 kPa, x1 = 0.0756) was 1.438 ± 0.015 mPa·s, the viscosity (308.15 K, 101 kPa, x1 = 0.1606) was 1.489 ± 0.016 mPa·s and the viscosity (308.15 K, 101 kPa, x1 = 0.2446) was 1.616 ± 0.018 mPa·s. It also gave a viscosity (308.15 K, 101 kPa, x1 = 0.3418) of 1.837 ± 0.02 mPa·s, a viscosity (308.15 K, 101 kPa, x1 = 0.4362) of 2.128 ± 0.024 mPa·s and a viscosity (308.15 K, 101 kPa, x1 = 0.5514) of 2.626 ± 0.03 mPa·s. It also gave a viscosity (308.15 K, 101 kPa, x1 = 0.6552) of 3.274 ± 0.039 mPa·s, a viscosity (308.15 K, 101 kPa, x1 = 0.754) of 4.19 ± 0.051 mPa·s and a viscosity (308.15 K, 101 kPa, x1 = 0.8754) of 5.992 ± 0.074 mPa·s. It also gave a viscosity (313.15 K, 101 kPa, x1 = 0.1606) of 1.324 ± 0.014 mPa·s, a viscosity (313.15 K, 101 kPa, x1 = 0.2446) of 1.442 ± 0.015 mPa·s and a viscosity (313.15 K, 101 kPa, x1 = 0.3418) of 1.644 ± 0.018 mPa·s. For the same compound, the viscosity (313.15 K, 101 kPa, x1 = 0.4362) was 1.908 ± 0.021 mPa·s, the viscosity (313.15 K, 101 kPa, x1 = 0.5514) was 2.356 ± 0.027 mPa·s and the viscosity (313.15 K, 101 kPa, x1 = 0.6552) was 2.945 ± 0.034 mPa·s. For the same compound, the viscosity (313.15 K, 101 kPa, x1 = 0.754) was 3.754 ± 0.044 mPa·s and the viscosity (313.15 K, 101 kPa, x1 = 0.8754) was 5.332 ± 0.063 mPa·s.

From the CheMixHub viscosity set
